The text below walks through data of patent publication US10106762B2, “Treating a textile garment with a hydrophobic dye solution” (Henkel IP & Holding GmbH, priority 2004, dated 2018).

Data set [1] is described as follows: Optical density of dye solution. It is filed as physicochemical. To be noted: 200 ppb solution in water at 10 cm; extrapolated from measurement in ethanol solutions at higher levels.
The next data set can be described thus: LogP of dye. Format: physicochemical.

As to Solvent blue 43, the “OD 10 cm” value in data set [1] is 0.33.
Take `COc1cc(/N=N/c2c(Br)cc([N+](=O)[O-])cc2[N+](=O)[O-])c(NC(C)=O)cc1N(CCOC(C)=O)CCOC(C)=O` [Disperse Blue 79:1]: the “OD 10 cm” value in data set [1] is listed as 0.048. The logP (in general, a log measure of how a compound divides between an organic and an aqueous phase) in the data set “LogP of dye” worked out at 4.5.
For Disperse Blue 367, the “OD 10 cm” value in data set [1] is listed as 0.0067.
On to `CC1(C)Nc2cccc3c(/N=N/c4ccc(/N=N/c5ccccc5)c5ccccc45)ccc(c23)N1` [solvent black 3], for which the “OD 10 cm” value in data set [1] is 0.11. This compound also had a logP in “LogP of dye” of 8.5.
Regarding `CN=C1C=CC(=C(c2ccc(N(C)C)cc2)c2ccc(N(C)C)cc2)C=C1` [Solvent Violet 8, Solvent Violet 8 (Methyl Violet B Base)], in data set [1], the “OD 10 cm” value is 0.26. This compound registered a logP in the data set “LogP of dye” of 4.5.
As to `CCN(CC)c1ccc(/N=N/c2c(C#N)cc([N+](=O)[O-])cc2C#N)c(NC(C)=O)c1` [Disperse Blue 165], the “OD 10 cm” value in data set [1] is reported as 0.014. In “LogP of dye”, this compound registered a logP of 3.5.
`CCN(CCO)c1ccc(/N=N/c2ccc([N+](=O)[O-])cc2)cc1` [disperse red 1]: in data set [1], the “OD 10 cm” value was 0.023. This compound also gave a logP in the data set “LogP of dye” of 4.
